Patent publication US10035760B2, “Inhibitors of human immunodeficiency virus replication” (priority 2013, dated 2018)
Read-outs that look alike come from different tables or passages of the source.

System: recombinant NL4-3 virus (Renilla luciferase) in MT-2 cells
Assay: HIV cell culture assay (antiviral activity, luciferase readout in infected MT-2 cells)
Format: cell-based
Settings: Renilla
Experimental: HIV cell culture assay—MT-2 cells, 293T cells and the proviral DNA clone of NL4-3 virus were obtained from the NIH AIDS Research and Reference Reagent Program. MT-2 cells were propagated in RPMI 1640 media supplemented with 10% heat inactivated fetal bovine serum (FBS), 100 ug/ml penicillin G and up to 100 units/ml streptomycin. The 293T cells were propagated in DMEM media supplemented with 10% heat inactivated FBS, 100 ug/ml penicillin G and 100 ug/ml streptomycin. A recombinant NL4-3 proviral clone, in which a section of the nef gene was replaced with the Renilla luciferase gene, was used to make the reference virus used in these studies. The recombinant virus was prepared through transfection of the recombinant NL4-3 proviral clone into 293T cells using Transit-293 Transfection Reagent from Mirus Bio LLC (Madison, Wis.). Supernatent was harvested after 2-3 days after transfection, and the amount of virus present was titered in MT-2 cells using luciferase enzyme activity as a marker. Luciferase activity was quantitated using the EnduRen Live Cell Substrate from Promega (Madison, Wis.). Antiviral activities of compounds toward the recombinant virus were quantified by measuring luciferase activity in MT-2 cells infected for 4-5 days with the recombinant virus in the presence of serial dilutions of the compound.
The 50% effective concentration (EC50) was calculated by using the exponential form of the median effect equation where (Fa)=1/[1+(ED50/drug conc.)^m](Johnson V A, Byington R T. Infectivity Assay. In Techniques in HIV Research. ed. Aldovini A, Walker B D. 71-76. New York: Stockton Press. 1990).

[1] = NL43, read-out: Activity, antiviral activity class, recombinant NL4-3 Renilla luciferase virus in MT-2 cells
[2] = NL43, recombinant NL4-3 Renilla luciferase virus in MT-2 cells

Structure (SMILES) | EC50 [1] [nM] | EC50 [2] [nM]
CCN(C(=O)[C@H](Cc1ccccc1)NC(=O)NS(=O)(=O)c1cccc(-c2cc3c(OC)cccc3[nH]2)c1)c1ccc(OC)cc1 [Example 154, (S)—N-ethyl-2-(3-((3-(4-methoxy-1H-indol-2-yl)phenyl)sulfonyl)ureido)-N-(4-methoxyphenyl)-3-phenylpropanamide] | 100 to 1000 | 670
CN(C(=O)[C@H](Cc1cc(F)cc(F)c1)NC(=O)NS(=O)(=O)c1ccccc1Cl)c1ccc2c(c1)OC(F)(F)O2 [Example 39, (S)-2-(3-((2-chlorophenyl)sulfonyl)ureido)-N-(2,2-difluorobenzo[d][1,3]dioxol-5-yl)-3-(3,5-difluorophenyl)-N-methylpropanamide] | 100 to 1000 | –
C/C=C\c1cccc(S(=O)(=O)NC(=O)N[C@@H](Cc2ccccc2)C(=O)N(CC)c2ccc(OC)cc2)c1 [Example 140] | < 100 | –
C=Cc1ccccc1S(=O)(=O)NC(=O)N[C@@H](Cc1ccccc1)C(=O)N(C)c1ccc2c(c1)OCO2 [Example 136, (S)—N-(benzo[d][1,3]dioxol-5-yl)-N-methyl-3-phenyl-2-(3-((2-vinylphenyl)sulfonyl)ureido)propanamide] | < 100 | –
CCN(C(=O)[C@H](Cc1ccccc1)NC(=O)NS(=O)(=O)c1ccccc1N)c1ccc(OC)cc1 [Example 147, (S)-2-(3-((2-aminophenyl)sulfonyl)ureido)-N-ethyl-N-(4-methoxyphenyl)-3-phenylpropanamide] | < 100 | –
CCN(C(=O)[C@H](Cc1ccccc1)NC(=O)NS(=O)(=O)c1cccc(-c2csc(C(=O)O)c2)c1C)c1ccc(OC)cc1 [Example 160] | 1000 to 10000 | 5640
COC(=O)c1cccc(C[C@H](NC(=O)NS(=O)(=O)c2ccccc2C)C(=O)N(C)c2ccc3c(c2)OCO3)c1 [Example 64, (S)-methyl 3-(3-(benzo[d][1,3]dioxol-5-yl(methyl)amino)-3-oxo-2-(3-(o-tolylsulfonyl)ureido)propyl)benzoate] | 1000 to 10000 | –
CN(C(=O)[C@H](Cc1ccccc1)NC(=O)NS(=O)(=O)c1ccc([N+](=O)[O-])cc1)c1ccc2c(c1)OCO2 [Example 21, (S)—N-(benzo[d][1,3]dioxol-5-yl)-N-methyl-2-(3-((4-nitrophenyl)sulfonyl)ureido)-3-phenylpropanamide] | 1000 to 10000 | –
COc1ccc(-c2ccccc2S(=O)(=O)NC(=O)N[C@@H](Cc2ccccc2)C(=O)N(C)c2ccc3c(c2)OCO3)cn1 [Example 126, (S)—N-(benzo[d][1,3]dioxol-5-yl)-2-(3-((2-(6-methoxypyridin-3-yl)phenyl)sulfonyl)ureido)-N-methyl-3-phenylpropanamide] | 10000 to 100000 | –
CN(C(=O)[C@H](Cc1ccccc1)NC(=O)NS(=O)(=O)c1ccccc1)c1ccc(F)cc1 [Example 91] | 100 to 1000 | –
Cc1ccc(C)c(S(=O)(=O)NC(=O)N[C@@H](Cc2ccccc2)C(=O)N(C)c2ccc3c(c2)OCO3)c1 [Example 13, (S)—N-(benzo[d][1,3]dioxol-5-yl)-2-(3-((2,5-dimethylphenyl)sulfonyl)ureido)-N-methyl-3-phenylpropanamide] | < 100 | 50
COc1ccc(N(C)C(=O)[C@H](Cc2cccnc2)NC(=O)NS(=O)(=O)c2ccccc2C)cc1 [Example 194, (S)—N-(4-methoxyphenyl)-N-methyl-3-(pyridin-3-yl)-2-(3-(o-tolylsulfonyl)ureido)propanamide] | 10000 to 100000 | –
CN(C(=O)[C@H](Cc1ccccc1)NC(=O)NS(=O)(=O)c1ccc(Cl)cc1)c1ccc2c(c1)OCO2 [Example 6, (S)—N-(benzo[d][1,3]dioxol-5-yl)-2-(3-((4-chlorophenyl)sulfonyl)ureido)-N-methyl-3-phenylpropanamide] | 100 to 1000 | –
CN(C(=O)[C@H](Cc1ccccc1)NC(=O)NS(=O)(=O)c1ccccc1F)c1ccc2c(c1)OCO2 [Example 9, (S)—N-(benzo[d][1,3]dioxol-5-yl)-2-(3-((2-fluorophenyl)sulfonyl)ureido)-N-methyl-3-phenylpropanamide] | < 100 | –
Cc1ccccc1S(=O)(=O)NC(=O)N[C@H](C(=O)N(C)c1ccc2c(c1)OCO2)[C@H]1CCc2ccccc21 [Example 84, (S)—N-(benzo[d][1,3]dioxol-5-yl)-2-((S)-2,3-dihydro-1H-inden-1-yl)-N-methyl-2-(3-(o-tolylsulfonyl)ureido)acetamide] | 10000 to 100000 | 22100
Cc1ccccc1S(=O)(=O)NC(=O)N[C@@H](Cc1ccccc1)C(=O)N(C)c1ccc2ncsc2c1 [Example CA-95, (S)—N-(benzo[d]thiazol-6-yl)-N-methyl-3-phenyl-2-(3-(o-tolylsulfonyl)ureido)propanamide] | < 100 | –
Cc1ccccc1S(=O)(=O)NC(=O)N[C@@H](Cc1ccc(O)cc1)C(=O)N(C)c1ccc2c(c1)OCO2 [Example 82, (S)—N-(benzo[d][1,3]dioxol-5-yl)-3-(4-hydroxyphenyl)-N-methyl-2-(3-(o-tolylsulfonyl)ureido)propanamide] | 1000 to 10000 | –
CN(C(=O)[C@H](Cc1ccccc1)NC(=O)NS(=O)(=O)c1ccccc1)c1cccc2ccccc12 [Example 94, (S)—N-methyl-N-(naphthalen-1-yl)-3-phenyl-2-(3-(phenylsulfonyl)ureido)-propanamide] | 10000 to 100000 | –
Cc1ccccc1S(=O)(=O)NC(=O)N[C@@H](Cc1ccccc1)C(=O)N(C)c1ccc2scnc2c1 [Example CA-88, (S)—N-(benzo[d]thiazol-5-yl)-N-methyl-3-phenyl-2-(3-(o-tolylsulfonyl)ureido)propanamide] | < 100 | 60
COc1ccc(N(C)C(=O)[C@@H](NC(=O)NS(=O)(=O)c2ccccc2C)[C@@H](C)c2ccccc2)cc1 [Example 197, (2S,3S)—N-(4-methoxyphenyl)-N-methyl-3-phenyl-2-(3-(o-tolylsulfonyl)ureido)butanamide] | 10000 to 100000 | 11500
Cc1ccccc1S(=O)(=O)NC(=O)N[C@@H](Cc1ccc(F)c(F)c1)C(=O)N(C)c1ccc2c(c1)OCO2 [Example 60, (S)—N-(benzo[d][1,3]dioxol-5-yl)-3-(3,4-difluorophenyl)-N-methyl-2-(3-(o-tolylsulfonyl)ureido)propanamide] | 100 to 1000 | 230
Cc1ccccc1S(=O)(=O)NC(=O)N[C@@H](Cc1ccccc1)C(=O)N1CCCC1c1cccnc1 (stereo partly drawn) [Example 189, 2-methyl-N-(((2S)-1-oxo-3-phenyl-1-(2-(pyridin-3-yl)pyrrolidin-1-yl)propan-2-yl)carbamoyl)benzenesulfonamide] | 1000 to 10000 | –
Cc1ccccc1S(=O)(=O)NC(=O)N[C@@H](Cc1ccccc1)C(=O)N(C)c1ccc2cccnc2c1 [Example CA-98, (S)—N-methyl-3-phenyl-N-(quinolin-7-yl)-2-(3-(o-tolylsulfonyl)ureido)propanamide] | 100 to 1000 | 120
COc1ccc(OC)c(S(=O)(=O)NC(=O)N[C@@H](Cc2ccccc2)C(=O)N(C)c2ccc3c(c2)OCO3)c1 [Example 30, (S)—N-(benzo[d][1,3]dioxol-5-yl)-2-(3-((2,5-dimethoxyphenyl)sulfonyl)ureido)-N-methyl-3-phenylpropanamide] | < 100 | –
Cc1ccccc1S(=O)(=O)NC(=O)N[C@@H](Cc1cccc(C#N)c1)C(=O)N(C)c1ccc2c(c1)OCO2 [Example 62, (S)—N-(benzo[d][1,3]dioxol-5-yl)-3-(3-cyanophenyl)-N-methyl-2-(3-(o-tolylsulfonyl)ureido)propanamide] | 1000 to 10000 | –
CN(C(=O)[C@H](Cc1ccccc1)NC(=O)N(C)S(=O)(=O)c1ccccc1Br)c1ccc2c(c1)OCO2 [Example 47, (S)—N-(benzo[d][1,3]dioxol-5-yl)-2-(3-((2-bromophenyl)sulfonyl)-3-methylureido)-N-methyl-3-phenylpropanamid] | 1000 to 10000 | –
CN(C(=O)[C@H](Cc1ccccc1)NC(=O)NS(=O)(=O)CCCc1ccccc1)c1ccc2c(c1)OCO2 [Example 25, (S)—N-(benzo[d][1,3]dioxol-5-yl)-N-methyl-3-phenyl-2-(3-((3-phenylpropyl)sulfonyl)ureido)propanamide] | 100 to 1000 | 930
CCn1c(C)nc2cc(N(C)C(=O)[C@H](Cc3ccccc3)NC(=O)NS(=O)(=O)c3ccccc3C)ccc21 [Example CA-74, (S)—N-(1-ethyl-2-methyl-1H-benzo[d]imidazol-5-yl)-N-methyl-3-phenyl-2-(3-(o-tolylsulfonyl)ureido)propanamide] | 1000 to 10000 | 2030
Cc1ccccc1CS(=O)(=O)NC(=O)N[C@@H](Cc1ccccc1)C(=O)N(C)c1ccc2c(c1)OCO2 [Example 104, (S)—N-(benzo[d][1,3]dioxol-5-yl)-N-methyl-2-(3-((2-methylbenzyl)sulfonyl)ureido)-3-phenylpropanamide] | 100 to 1000 | 620
Cc1ccccc1S(=O)(=O)NC(=O)N[C@@H](Cc1cccc(S(=O)(=O)N2CCOCC2)c1)C(=O)N(C)c1ccc2c(c1)OCO2 [Example 81, (S)—N-(benzo[d][1,3]dioxol-5-yl)-N-methyl-3-(3-(morpholinosulfonyl)phenyl)-2-(3-(o-tolylsulfonyl)ureido)propanamide] | 10000 to 100000 | –
